Assay results from patent publication US20240317732A1, “A NEW MOLECULAR SCAFFOLD FOR TARGETING HRPN13” (THE UNITED STATES OF AMERICA AS REPRESENTED BY THE …, priority 2021, published 2024).
“Also recorded” adds a separate entry of the source.

Experiments:
RPMI 8226 WT cells = test: Apoptosis by cleaved caspase-9 immunoblot in RPMI 8226 WT; type: cell-based; details: 40 μM PROTAC or 20 μM XL5-S2
Description: RPMI 8226 WT or trRpn13-MM2 (MM2) cells were treated with 40 μM XL5-VHL-2, 40 μM XL5-VHL-3 or DMSO (vehicle control) and the whole cell extract immunoprobed for hRpn13 or cleaved caspase-9 with β-actin as a loading control. A black asterisk indicates cleaved caspase-9 in the 2-min immunoblot for hRpn13, as hRpn13 was probed following cleaved caspase-9 and without stripping the membrane.
RPMI 8226 WT or trRpn13-MM2 cells were treated with 20 μM XL5-S2 or DMSO (vehicle control) and the whole cell extract immunoprobed for hRpn13 or cleaved caspase-9, with β-actin as a loading control. A black asterisk indicates cleaved caspase-9 in the 5-min immunoblot for hRpn13, as hRpn13 was probed following cleaved caspase-9 and without stripping the membrane.
HCT116 WT, HCT116 trRpn13, RPMI 8226 or 293T cells were collected and washed with PBS followed by lysing in 1% Triton-TBS lysis buffer (50 mM Tris-HCl, pH 7.5, 150 mM NaCl, 1 mM PMSF) supplemented with protease inhibitor cocktail (Roche). Total protein concentration was determined by bicinchoninic acid (Pierce). Protein lysates were prepared in 1χ LDS (ThermoFisher, NP0007) buffer with 100 mM DTT and heating at 70° C. for 10 min, loaded onto 4-12% Bis-Tris polyacrylamide gels (Life Technologies), subjected to SDS-PAGE and transferred to Invitrolon polyvinylidene difluoride membranes (Life Technologies). […]

RPMI 8226 cells = test: MTT cell metabolism / cell viability assay in RPMI 8226; type: cell-based
Description: (§1) Since previous hRpn13-targeting molecules induce apoptosis in multiple myeloma and colon cancer cells we tested whether XL5 restricts the RPMI 8226 multiple myeloma and HCT116 colon cancer cell lines by measuring metabolism with an MTT (3-(4,5-dimethylthiazol-2-yl)-2,5-diphenyltetrazolium bromide) assay. Experiments were also conducted in parallel with a HCT116 colon cancer cell line in which the exon encoding hRpn13 C88 is deleted, named trRpn13; this cell line expresses a truncated hRpn13 protein with a defective Pru and inability to bind the proteasome28. RPMI 8226 and WT (wild-type) or trRpn13 HCT116 cells seeded at 8,000 and 4,000 cells per well were treated with varying concentrations of XL5 extending to 40 μM and compared to cells incubated with equivalent amounts of DMSO vehicle control.
HCT116 WT or trRpn13 cells were seeded at 4,000 cells/well whereas RPMI 8226 cells were seeded at 8,000 cells/well with RPMI 1640 medium (no phenol red, Thermo Fisher Scientific 11835030) containing 2% fetal bovine serum in 96-well plates. Cells were treated with 0.4% DMSO (as a control) and this concentration was maintained with XL5, XL5-PROTACs XL5-VHL, XL5-VHL-2, XL5-CRBN, or XL5-IAP, and E3 ligands VHL-Ac, thalidomide (Selleckchem, catalog NO. S1193), or IAP-Bz at 10 μM, 20 μM, 30 μM or 40 μM concentration. After 48 hours, 0.35 mg/mL MTT was added for 4 hours of incubation. Stop solution (40% DMF, 10% SDS (W/V), 25 mM HCl, 2.5% acetic acid in H2O) was added to the cells and incubated overnight. Absorbance at 570 nm was measured by using CLARIOstar (BMG LABTECH).

HCT116 WT cells = test: MTT cell metabolism / cell viability assay in HCT116 WT; type: cell-based; details: read-out: XL5-VHL-2 Sensitivity (IC50, μM) Cell viability assay
Description: as §1
HCT116 WT or trRpn13 cells were seeded at 4,000 cells/well whereas RPMI 8226 cells were seeded at 8,000 cells/well with RPMI 1640 medium (no phenol red, Thermo Fisher Scientific 11835030) containing 2% fetal bovine serum in 96-well plates. Cells were treated with 0.4% DMSO (as a control) and this concentration was maintained with XL5, XL5-PROTACs XL5-VHL, XL5-VHL-2, XL5-CRBN, or XL5-IAP, and E3 ligands VHL-Ac, thalidomide (Selleckchem, catalog NO. S1193), or IAP-Bz at 10 μM, 20 μM, 30 μM or 40 μM concentration. […] Absorbance at 570 nm was measured by using CLARIOstar (BMG LABTECH).

[1] = system: RPMI 8226 trRpn13-MM2 cells; test: MTT cell viability assay in RPMI 8226 trRpn13-MM2; type: cell-based; details: RPMI 8226 trRpn13-MM2, 48 hours, compared to WT
Description: FIGS. 11A-11C show hRpn13-Pru PROTACs with different linkers restrict cell viability in an hRpn13 Pru-dependent manner. RPMI 8226 WT (darker shades) or trRpn13-MM2 (lighter shades) cells were treated with the indicated concentration of XL5-VHL-2 (FIG. 11A), XL5-VHL-3 (FIG. 11A), XL5-VHL-4 (FIG. 11B) or XL5-VHL-5 (FIG. 11C) for 48 hours and cell metabolism measured by an MTT assay; data represent mean±SD of n=6 biological replicates. Viability is calculated as (λ570)sample/(λ570)control×100(%).

hRpn13 / hRpn13-Pru = test: Immunoblot of hRpn13 species in RPMI 8226 cell lysates; type: cell-based, human; details: RPMI 8226, 40 μM, 24 hours
Description: HCT116 WT, HCT116 trRpn13, RPMI 8226 or 293T cells were collected and washed with PBS followed by lysing in 1% Triton-TBS lysis buffer (50 mM Tris-HCl, pH 7.5, 150 mM NaCl, 1 mM PMSF) supplemented with protease inhibitor cocktail (Roche). Total protein concentration was determined by bicinchoninic acid (Pierce). Protein lysates were prepared in 1χ LDS (ThermoFisher, NP0007) buffer with 100 mM DTT and heating at 70° C. for 10 min, loaded onto 4-12% Bis-Tris polyacrylamide gels (Life Technologies), subjected to SDS-PAGE and transferred to Invitrolon polyvinylidene difluoride membranes (Life Technologies). The membranes were blocked in Tris-buffered saline with 0.1% Tween-20 (TBST) supplemented with 5% skim milk, incubated with primary antibody, washed in TBST, incubated with secondary antibody and washed extensively in TBST. Pierce™ ECL Western Blotting Substrate (32106; Thermo Fisher Scientific) or Amersham™ ECL™ Primer Western Blotting Detection Reagent (cytiva) was used for antibody signal detection.
To test whether the XL5-PROTACs cause ubiquitination and degradation of hRpn13, lysates from RPMI 8226 (FIG. 5C) cells treated with 40 μM XL5 orXL5-PROTAC compared to DMSO vehicle control were immunoprobed for hRpn13 and β-actin (loading control).

MM.1S cells = test: MTT cell viability assay in MM.1S; type: cell-based; details: read-out: XL5-VHL-2 Sensitivity (IC50, μM) Cell viability assay
Description: The mass spectra (upper panel) were deconvoluted from the UV peak (lower panel) indicated with a black arrow. […] Viability is calculated as (λ570)sample/(λ570)control×100(%). […] Immunoprobing for cleaved caspase-9 and hRpn13 was done separately with re-probing for β-actin. […] A dashed line indicates the value […].

Structure (SMILES): Cc1ncsc1-c1ccc([C@H](C)NC(=O)[C@@H]2C[C@@H](O)CN2C(=O)[C@@H](NC(=O)CCCCc2cn(-c3ccc(C(=O)Nc4cccc(/C=C(\C#N)C(=O)Nc5ccccc5C(=O)O)c4)cc3)nn2)C(C)(C)C)cc1 [XL5-VHL-2]
- apoptosis induction (cleaved caspase-9) (RPMI 8226 WT cells): poorer induction of cleaved caspase-9
- metabolic activity / cell viability (MTT) (RPMI 8226 cells; RPMI 8226, 48 hours, up to 40 μM): hook effect and lost
- IC50 (RPMI 8226 cells; RPMI 8226, read-out: XL5-VHL-2 Sensitivity (IC50, μM) Cell viability assay): 4.2 ± 1 µM
- IC50 (HCT116 WT cells): 23.6 ± 4.7 µM
- cell viability (MTT) [1]: loss of activity
- lower molecular weight hRpn13 species (hRpn13-Pru) level (hRpn13 / hRpn13-Pru): less hRpn13-Pru loss; also recorded: reduced in abundance
- higher molecular weight hRpn13 species characteristic of ubiquitination (hRpn13 / hRpn13-Pru; longer exposure): increase in higher molecular weight hRpn13 species
- IC50 (MM.1S cells): 5.9 ± 0.7 µM
